This test deals with T1, CDK2 (Homo sapiens, UniProt P24941).
T1 construct: High-Throughput Measurement of Cellular Endogenous CDK2; endogenous in cells; host or cells: OVCAR3
Kind of test: Inhibition of CDK2: phospho-Rb (S807/811) HTRF measurement in OVCAR3 cells. It is filed as cell-based. Particulars: 24 h compound treatment, read-out: pRb (nM), IC50 in pRB(S807/811) assay. Here is the method:
Phosphorylation of RB protein at S807/811 were measured using HTRF phospho-RB cellular kits (Cat #64RBS807PEG) from Cisbio.
On Day 1, OVCAR3 (dependent on CDK2) cells were seeded into 96-well tissue-culture treated plates at 20,000 cells/well in 200 μL and incubated overnight at 37° C. in CO2 atmosphere. On Day 2, the cells were treated with test compounds at concentrations from 0.3 to 10,000 nM using HP D300 digital dispenser. Twenty-four hours after compound treatment, cell culture media was removed by flicking the plate and tapping the plate against clean paper towel. Immediately 30 μL 1× lysis buffer was supplemented from the kit and the plate was incubated at room temperature on shaker for 30 min. After homogenization by pipetting up and down, 8 μL cell lysate from 96-well cell culture plate was transferred to 384-well small volume white detection plate. 2 μL premixed detection solution was added and the plate was covered with sealer. To prepare the detection solution, d2 conjugated-phospho-RB antibody and Eu-cryptate conjugated phosphor-RB antibody were diluted into detection buffer following manufacturer's instruction. Detection plates were incubated for 4 h at room temperature and read on ClarioStar (BMG Labtech) in TR-FRET mode (665 nM and 620 nM). The TR-FRET ratio (665 nM/620 nM) was plotted against the compound concentration and normalized to DMSO controls. Half maximal inhibition concentration (IC50) values are calculated with a four-parameter logistic fit using GraphPad Prism (version 8; La Jolla, CA).
In the table below, A indicates a IC50 of less than 0.1 μM; B indicates a IC50 of greater than or equal to 0.1 μM but less than 0.5 μM; C indicates a IC50 of greater than or equal to 0.5 μM but less than 1 μM; and D indicates a […] of greater than or equal to 1 μM but less than 10 μM.
On the technique in general: TR-FRET usually uses a lanthanide donor and a delayed reading to cut background.
Regarding `Cn1nc(N2CCC(=O)NC2=O)c2ccc(C3CCN(Cc4cccc(S(=O)(=O)N5CC[C@@H](Nc6ncc(C(F)(F)F)c(-c7cnn(CC(F)(F)F)c7)n6)[C@@H](F)C5)c4)CC3(F)F)cc21` (stereo partly drawn) [Example 66, 1-(6-(3,3-difluoro-1-(3-(((3S,4R)-3-fluoro-4-((4-(1-(2,2,2-trifluoroethyl)-1H-pyrazol-4-yl)-5-(trifluoromethyl)-pyrimidin-2-yl)amino)piperidin-1-yl)-sulfonyl)benzyl)piperidin-4-yl)-1-methyl-1H-indazol-3-yl)dihydro-pyrimidine-2,4(1H,3H)-dione], the IC50 was in the range of 1000 to 10000 nM.

For the compound `Cn1nc(N2CCC(=O)NC2=O)c2ccc(C3CCN(CCc4cccc(S(=O)(=O)[C@H]5CC[C@H](Nc6ncc(C(F)(F)F)c(-c7cnn(CC(F)(F)F)c7)n6)CC5)c4)CC3)cc21` [Example 95, 1-(1-methyl-6-(1-(3-(((1r,4r)-4-((4-(1-(2,2,2-trifluoroethyl)-1H-pyrazol-4-yl)-5-(trifluoromethyl)pyrimidin-2-yl)-amino)-cyclohexyl)sulfonyl)phenethyl)piperidin-4-yl)-1H-indazol-3-yl)dihydro-pyrimidine-2,4(1H,3H)-dione], the IC50 was in the range of 100 to 500 nM. To `O=C1CCC(N2CCN(Cc3cccc(S(=O)(=O)N4CCC(Nc5ncc(C(F)(F)F)c(-c6cnn(CC(F)(F)F)c6)n5)CC4)c3)C3CC32)C(=O)N1` (centres unmarked) [Example 63, 3-(5-(3-((4-((4-(1-(2,2,2-trifluoro-ethyl)-1H-pyrazol-4-yl)-5-(trifluoromethyl)-pyrimidin-2-yl)amino)-piperidin-1-yl)-sulfonyl)benzyl)-2,5-diazabicyclo[4.1.0]-heptan-2-yl)-piperidine-2,6-dione] belongs 100 to 500 nM. As for `O=C1CCC(Nc2ccc(N3CCN(Cc4cccc(S(=O)(=O)N5CCC(Nc6ncc(C(F)(F)F)c(-c7cnn(CC(F)(F)F)c7)n6)CC5)c4)CC3)cc2)C(=O)N1` (centres unmarked) [Example 53], the figure is under 100 nM; as for `Cn1nc(N2CCC(=O)NC2=O)c2ccc(C3CCN(C(c4cccc(S(=O)(=O)N5CCC(Nc6ncc(C(F)(F)F)c(-c7cnn(CC(F)(F)F)c7)n6)CC5)c4)C(F)(F)F)CC3)cc21` (centres unmarked) [Example 91, 1-(1-methyl-6-(1-(2,2,2-trifluoro-1-(3-((4-((4-(1-(2,2,2-trifluoroethyl)-1H-pyrazol-4-yl)-5-(trifluoromethyl)-pyrimidin-2-yl)amino)piperidin-1-yl)-sulfonyl)phenyl)ethyl)piperidin-4-yl)-1H-indazol-3-yl)dihydro-pyrimidine-2,4(1H,3H)-dione], 100 to 500 nM; as for `O=C1CCC(N2Cc3cc(N4CCC(CN5CCN(c6cccc(S(=O)(=O)N7CCC(Nc8ncc(C(F)(F)F)c(-c9cnn(CC(F)(F)F)c9)n8)CC7)c6)CC5)CC4)ccc3C2=O)C(=O)N1` (centres unmarked) [Example 45, 3-(1-oxo-5-(4-((4-(3-((4-((4-(1-(2,2,2-trifluoroethyl)-1H-pyrazol-4-yl)-5-(trifluoromethyl)pyrimidin-2-yl)-amino)-piperidin-1-yl)sulfonyl)-phenyl)piperazin-1-yl)methyl)-piperidin-1-yl)isoindolin-2-yl)-piperidine-2,6-dione], 100 to 500 nM. As for `Cn1nc(N2CCC(=O)NC2=O)c2ccc(C3CCN(Cc4cccc(S(=O)(=O)N5CC[C@H](Nc6ncc(C(F)(F)F)c(-c7cnn(CC(F)F)c7)n6)[C@H](F)C5)c4)CC3)cc21` (racemic) [Example 37], the figure is under 100 nM. `Cn1nc(N2CCC(=O)NC2=O)c2ccc(N3CCC(CN4CCN(S(=O)(=O)N5CCC(Nc6ncc(C(F)(F)F)c(-c7cnn(CC(F)(F)F)c7)n6)CC5)CC4)CC3)cc21` [Example 97, 1-(1-methyl-6-(4-((4-((4-((4-(1-(2,2,2-trifluoroethyl)-1H-pyrazol-4-yl)-5-(trifluoromethyl)pyrimidin-2-yl)amino)-piperidin-1-yl)sulfonyl)piperazin-1-yl)-methyl)piperidin-1-yl)-1H-indazol-3-yl)dihydropyrimidine-2,4(1H,3H)-dione]: the IC50 was 100 to 500 nM. To `Cn1nc(N2CCC(=O)NC2=O)c2ccc(C3CCN(Cc4cccc(S(=O)(=O)N5CCC(Nc6ncc(C(F)(F)F)c(-c7cnn(CC(F)(F)F)c7)n6)CC5)c4C(F)(F)F)CC3)cc21` [Example 87, 1-(1-methyl-6-(1-(3-((4-((4-(1-(2,2,2-trifluoroethyl)-1H-pyrazol-4-yl)-5-(trifluoromethyl)pyrimidin-2-yl)-amino)-piperidin-1-yl)sulfonyl)-2-(trifluoro-methyl)benzyl)piperidin-4-yl)-1H-indazol-3-yl)dihydro-pyrimidine-2,4(1H,3H)-dione] belongs 500 to 1000 nM. To `O=C1CCN(C2CCCN(Cc3cccc(S(=O)(=O)N4CCC(Nc5ncc(C(F)(F)F)c(-c6cnn(CC(F)(F)F)c6)n5)CC4)c3)C2)C(=O)N1` (centres unmarked) [Example 80, 1-(1-(3-((4-((4-(1-(2,2,2-trifluoro-ethyl)-1H-pyrazol-4-yl)-5-(trifluoromethyl)-pyrimidin-2-yl)amino)-piperidin-1-yl)sulfonyl)benzyl)-piperidin-3-yl)dihydropyrimidine-2,4(1H,3H)-dione] belongs 100 to 500 nM; to `Cn1nc(N2CCC(=O)NC2=O)c2ccc(C3CCN(CC(C)(C)Cc4cccc(S(=O)(=O)N5CCC(Nc6ncc(C(F)(F)F)c(-c7cnn(CC(F)(F)F)c7)n6)CC5)c4)CC3)cc21` [Example 98, 1-(6-(1-(2,2-dimethyl-3-(3-((4-((4-(1-(2,2,2-trifluoroethyl)-1H-pyrazol-4-yl)-5-(trifluoromethyl)pyrimidin-2-yl)amino)-piperidin-1-yl)sulfonyl)-phenyl)propyl)-piperidin-4-yl)-1-methyl-1H-indazol-3-yl)dihydro-pyrimidine-2,4(1H,3H)-dione], under 100 nM; to `Cn1nc(N2CCC(=O)NC2=O)c2ccc(C3CCN(CC4CCN(S(=O)(=O)[C@H]5CC[C@H](Nc6ncc(C(F)(F)F)c(-c7cnn(CC(F)(F)F)c7)n6)CC5)CC4)CC3)cc21` [Example 94, 1-(1-methyl-6-(1-((1-(((1r,4r)-4-((4-(1-(2,2,2-trifluoroethyl)-1H-pyrazol-4-yl)-5-(trifluoromethyl)pyrimidin-2-yl)-amino)cyclohexyl)sulfonyl)piperidin-4-yl)methyl)piperidin-4-yl)-1H-indazol-3-yl)dihydropyrimidine-2,4(1H,3H)-dione], 100 to 500 nM. As for `O=C1CCN(C2CCN(Cc3cccc(S(=O)(=O)N4CCC(Nc5ncc(C(F)(F)F)c(-c6cnn(CC(F)(F)F)c6)n5)CC4)c3)CC2)C(=O)N1` [Example 46], the IC50 fell in the range of 100 to 500 nM. Take `Cn1nc(N2CCC(=O)NC2=O)c2ccc(N3CC4CCC(C3)N4Cc3cccc(S(=O)(=O)N4CC[C@H](Nc5ncc(C(F)(F)F)c(-c6cnn(CC(F)(F)F)c6)n5)[C@H](F)C4)c3)cc21` [Example 85, 1-(6-(8-(3-(((3R,4S)-3-fluoro-4-((4-(1-(2,2,2-trifluoroethyl)-1H-pyrazol-4-yl)-5-(trifluoromethyl)pyrimidin-2-yl)-amino)-piperidin-1-yl)sulfonyl)benzyl)-3,8-diazabicyclo[3.2.1]octan-3-yl)-1-methyl-1H-indazol-3-yl)dihydro-pyrimidine-2,4(1H,3H)-dione]: the IC50 was 100 to 500 nM.

As to `O=C1CCC(N2CCN(Cc3cccc(S(=O)(=O)N4CCC(Nc5ncc(C(F)(F)F)c(-c6cnn(CC(F)(F)F)c6)n5)CC4)c3)CC2)C(=O)N1` (centres unmarked) [Example 76, 3-(4-(3-((4-((4-(1-(2,2,2-trifluoro-ethyl)-1H-pyrazol-4-yl)-5-(trifluoromethyl)-pyrimidin-2-yl)amino)-piperidin-1-yl)-sulfonyl)benzyl)piperazin-1-yl)-piperidine-2,6-dione], the IC50 was in the range of 100 to 500 nM. To `O=C1CCN(c2ccc(N3CCN(Cc4cccc(S(=O)(=O)N5CCC(Nc6ncc(C(F)(F)F)c(-c7cnn(-c8ccccc8F)c7)n6)CC5)c4)CC3)cc2)C(=O)N1` [Example 71, 1-(4-(4-(3-((4-((4-(1-(2-fluorophenyl)-1H-pyrazol-4-yl)-5-(trifluoromethyl)-pyrimidin-2-yl)amino)piperidin-1-yl)sulfonyl)benzyl)piperazin-1-yl)-phenyl)dihydropyrimidine-2,4(1H,3H)-dione] belongs 100 to 500 nM.

With `Cn1nc(N2CCC(=O)NC2=O)c2ccc(C3CCN(Cc4cc(S(=O)(=O)N5CCC(Nc6ncc(C(F)(F)F)c(-c7cnn(CC(F)(F)F)c7)n6)CC5)ccc4C(F)(F)F)CC3(F)F)cc21` (centres unmarked) [Example 55], the IC50 was in the range of 1000 to 10000 nM.

The values are drawn from US20260274853A1, “BIFUNCTIONAL COMPOUNDS CONTAINING PYRIMIDINE DERIVATIVES FOR DEGRADING CYCLIN-DEPENDENT KINASE 2 VIA UBIQUITIN PROTEASOME PATHWAY” (NIKANG THERAPEUTICS, INC., priority 2022, published 2026).
